Experimental data: patent US10544113B2 (priority 2016, dated 2020)

Key:
MOR = MOR (Rattus norvegicus, UniProt P33535); assay: cAMP assay (adenylyl cyclase inhibition) in HEK-MOR cells; type: cell-based
Procedure: Human embryonic kidney 293 (HEK-293) cells constitutively expressing MOR (HEK-MOR) and DOR (HEK-DOR) (kindly provided by Dr. Ping-Yee Law, University of Minnesota, USA) were cultured in high-glucose Dulbecco's modified Eagle's medium (DMEM, GIBCO) supplemented with 400 μg/mL G418 (Sigma), 2 mM L-glutamine and P/S/F (100 units/mL penicillin, 100 μg/mL streptomycin, 10% fetal bovine serum). Chinese hamster ovary (CHO)-K1 cells, stably expressing hMOR and Gα15 (CHO-K1/MOR/Gα15), were cultured in F12 medium (GIBCO) supplemented with 10 μg/mL Hygromycin B (Invivogen), 20 μg/mL Zeocin (Invivogen) P/S/F (100 units/mL penicillin, 100 μg/mL streptomycin, 10% fetal bovine serum). The cultures were incubated at 37° C. in a humidified 5% CO2 incubator.
Briefly, 2000 HEK-MOR cells or HEK-DOR cells were plated in 10 μL/well of DMEM in 96-well solid bottom white plates and 10 μL/well compound in HBSS in the presence with 1 μM forskolin and 100 μM 3-isobutyl-1-methylxanthine (IBMX). After 30 minutes of incubation at room temperature, 10 μL/well of labeled d2-cAMP and 10 μL/well of anti-cAMP antibody (both diluted in lysis buffer) were added to each well. Two hours later, plates were measured using the FlexStationIII (Molecular Devices Corp.) with excitation at 330 nm and emissions of 620 nm and 665 nm. […]

B6 mice = assay: Tail-flick test; type: in vivo, mouse
Procedure: In an exemplary in vivo method, a test compound and a MOR antagonist are injected into a mouse pain model (for example, intravenous but not limited), basal latencies are recorded before the treatment and test latencies are recorded at various specified times after the injection, and a time-response curve is recorded and AUC values are calculated to determine whether an analgesic effect is exerted on the mouse. The test compound is confirmed to be an antagonist-to-agonist allosteric modifier of the MOR upon observation of an analgesic effect.
Male wild-type (WT) B6 mice (25-30 g) were kept in a temperature-controlled animal room with a 12-h light/dark cycle. The protocol has been approved by the Institutional Animal Care and Use Committee of the National Health Research Institutes, Taiwan. Animal experiments were carried out in accordance with the Policies on the Use of Animals in Neuroscience Research and the ethical guidelines for investigations of experimental pain in conscious animals, International Association for the Study of Pain. Tail-Flick Analgesia Meter (Columbia Instruments) was used to measure the tail-flick latencies of mice. The cut-off time for each measurement was 10 s to avoid tissue damage. Basal latencies were recorded before treatment and test latencies were recorded 30, 60, 90, 120 and 180 min after an intravenous injection of drugs. […] ED50 values were determined by the up-and-down method reported in Crocker et al., Pharmacol Biochem Behav, 1984, 21, 133-136.
An in vivo study, i.e., tail-flick test, was performed to investigate whether AAMs could change innate character of μ-opioid receptor in the presence of naloxone. […] In mice injected with naloxone (10 mg/kg; s.c.), the ED50 value of compound 58 in inhibition of the tail-flick response was determined to be 23.1±7.1 nmole.

Chain of MOR (P33535 whole entry, looked up): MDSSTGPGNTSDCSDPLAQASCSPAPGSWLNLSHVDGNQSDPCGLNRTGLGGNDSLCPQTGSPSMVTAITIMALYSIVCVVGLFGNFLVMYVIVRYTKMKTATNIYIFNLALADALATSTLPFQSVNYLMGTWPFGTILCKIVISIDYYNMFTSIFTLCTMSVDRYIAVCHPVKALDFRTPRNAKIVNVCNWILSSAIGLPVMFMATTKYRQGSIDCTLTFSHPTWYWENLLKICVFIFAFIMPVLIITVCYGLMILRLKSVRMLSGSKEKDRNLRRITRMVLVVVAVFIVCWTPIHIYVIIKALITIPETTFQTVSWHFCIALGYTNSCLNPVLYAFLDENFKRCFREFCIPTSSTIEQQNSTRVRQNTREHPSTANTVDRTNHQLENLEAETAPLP

In the case of `Cc1cc(C(=O)O)ccc1N1C(=O)CSC1c1ccc(F)cc1` (centres unmarked), the “selectivity mu over delta opioid receptor” value (MOR; HEK-MOR vs HEK-DOR, with naloxone (20 nM)) is reported as “selective for mu-over delta-opioid receptors”, the “inhibition of adenylyl cyclase activity” value (MOR; HEK-MOR, combined with naloxone (20 nM)) is reported as “significantly inhibited adenylyl cyclase activity” and the “AUC of tail-flick inhibition” value (B6 mice; 12.5 nmole i.t. with naloxone (10 mg/kg; s.c.)) is reported as 241.5±111.3 min×s. For the same compound, the “AUC of tail-flick inhibition” value (B6 mice; 25 nmole i.t. with naloxone (10 mg/kg; s.c.)) was 560.6±96.5 min×s, the “AUC of tail-flick inhibition” value (B6 mice; 50 nmole i.t. with naloxone (10 mg/kg; s.c.)) was 649.8±123.3 min×s and the “antinociceptive effect, compound alone” value (B6 mice; B6 mice, 50, 25, 12.5 and 6.25 nmole i.t., no naloxone) was “didn't exhibit any antinociceptive effects”. For the same compound, the “ED50 in inhibition of the tail-flick response” value (B6 mice; mice injected with naloxone (10 mg/kg; s.c.), compound i.t.) was 23.1 ± 7.1 nmol and the “antinociception effect in mice injected with saline” value (B6 mice; saline, highest dose 50 nmole i.t.) was “no antinociception effect was observed”.
